This note sets out measurements from PMC5218480 (PLoS ONE, 2017).

For the assay, the system named is MV-4-11 cells. The experiment in a line: Gene expression microarray analysis (Affymetrix PrimeView) and GSEA. In kind it is cell-based, human. Further details: RFU PODN (11730768_x_at) / Fold change /veh PODN (11730768_x_at) / RFU LINC00158 (11744669_a_at) / Fold change /veh LINC00158 (11744669_a_at) / RFU DUSP10 (11751237_a_at) / Fold change /veh DUSP10 (11751237_a_at) / RFU ID3 (11757404_x_at) / Fold change /veh ID3 (11757404_x_at) / RFU PLEKHG5 (11737974_s_at) / Fold change /veh PLEKHG5 (11737974_s_at) / RFU LRRC4B (11730491_at) / Fold change /veh LRRC4B (11730491_at) / RFU GIMAP4 (11747438_a_at) / Fold change /veh GIMAP4 (11747438_a_at) / RFU KRT8 (11758183_x_at) / Fold change /veh KRT8 (11758183_x_at) / RFU CNN1 (11734310_a_at) / Fold change /veh CNN1 (11734310_a_at) / RFU VPS37D (11726825_at) / Fold change /veh VPS37D (11726825_at) / RFU C10orf10 (11716522_x_at) / Fold change /veh C10orf10 (11716522_x_at) / RFU KIR2DL2 /// KIR2DL4 /// KIR2DL5A /// KIR2DL5B /// KIR2DS1 /// KIR2DS2 /// KIR2DS3 /// KIR2DS4 /// KIR3DL3 /// KIR3DL3 /// KIR3DS1 (11738374_at) / Fold change /veh KIR2DL2 /// KIR2DL4 /// KIR2DL5A /// KIR2DL5B /// KIR2DS1 /// KIR2DS2 /// KIR2DS3 /// KIR2DS4 /// KIR3DL3 /// KIR3DL3 /// KIR3DS1 (11738374_at) / RFU C1QL1 (11718748_at) / Fold change /veh C1QL1 (11718748_at) / RFU TMPRSS4 (11747572_a_at) / Fold change /veh TMPRSS4 (11747572_a_at) / RFU HAMP (11756126_x_at) / Fold change /veh HAMP (11756126_x_at) / RFU RNFT2 (11725882_a_at) / Fold change /veh RNFT2 (11725882_a_at) / RFU NR4A2 (11747474_a_at) / Fold change /veh NR4A2 (11747474_a_at) / RFU ABCC12 (11746883_a_at) / Fold change /veh ABCC12 (11746883_a_at) / RFU TMEM136 (11760407_x_at) / Fold change /veh TMEM136 (11760407_x_at) / RFU CLDN22 /// WWC2 (11732394_at) / Fold change /veh CLDN22 /// WWC2 (11732394_at) / RFU HLA-DPB1 (11760878_x_at) / Fold change /veh HLA-DPB1 (11760878_x_at) / RFU SPINT1 (11716480_a_at) / Fold change /veh SPINT1 (11716480_a_at) / RFU GAP43 (11754022_s_at) / Fold change /veh GAP43 (11754022_s_at) / RFU A4GNT (11735810_at) / Fold change /veh A4GNT (11735810_at) / RFU PRB3 (11715151_x_at) / Fold change /veh PRB3 (11715151_x_at) / RFU TUBB4B (11761932_at) / Fold change /veh TUBB4B (11761932_at) / RFU CAPN14 (11732068_a_at) / Fold change /veh CAPN14 (11732068_a_at) / RFU TMCC2 (11721928_a_at) / Fold change /veh TMCC2 (11721928_a_at) / RFU IRGQ (11745062_a_at) / Fold change /veh IRGQ (11745062_a_at) / RFU FAM174B (11720279_a_at) / Fold change /veh FAM174B (11720279_a_at) / RFU TMPRSS4 (11748680_a_at) / Fold change /veh TMPRSS4 (11748680_a_at) / RFU FAM212B (11763350_a_at) / Fold change /veh FAM212B (11763350_a_at) / RFU PLEKHG5 (11743358_a_at) / Fold change /veh PLEKHG5 (11743358_a_at) / RFU ZSCAN30 (11745921_a_at) / Fold change /veh ZSCAN30 (11745921_a_at) / RFU CMKLR1 (11741424_a_at) / Fold change /veh CMKLR1 (11741424_a_at) / RFU LOC101060620 /// MAPK8IP1 (11723275_at) / Fold change /veh LOC101060620 /// MAPK8IP1 (11723275_at) / RFU SPTSSB (11747773_x_at) / Fold change /veh SPTSSB (11747773_x_at) / RFU PRSS12 (11739890_at) / Fold change /veh PRSS12 (11739890_at) / RFU BIN1 (11741810_x_at) / Fold change /veh BIN1 (11741810_x_at) / RFU WNT11 (11732464_a_at) / Fold change /veh WNT11 (11732464_a_at) / RFU C10orf10 (11716521_a_at) / Fold change /veh C10orf10 (11716521_a_at) / RFU C5orf56 (11738089_at) / Fold change /veh C5orf56 (11738089_at) / RFU CYB561 (11721691_x_at) / Fold change /veh CYB561 (11721691_x_at) / RFU ANKRD19P (11752326_a_at) / Fold change /veh ANKRD19P (11752326_a_at) / RFU OR2T12 /// OR2T33 /// OR2T8 (11738714_s_at) / Fold change /veh OR2T12 /// OR2T33 /// OR2T8 (11738714_s_at) / RFU VCAN (11748164_a_at) / Fold change /veh VCAN (11748164_a_at) / RFU JSRP1 (11732532_at) / Fold change /veh JSRP1 (11732532_at) / RFU KRTAP10-11 (11738290_x_at) / Fold change /veh KRTAP10-11 (11738290_x_at) / RFU MYO3A (11730013_a_at) / Fold change /veh MYO3A (11730013_a_at) / RFU EBF3 (11725865_a_at) / Fold change /veh EBF3 (11725865_a_at) / RFU CAMK2N1 (11719241_x_at) / Fold change /veh CAMK2N1 (11719241_x_at) / RFU C5orf56 (11738088_a_at) / Fold change /veh C5orf56 (11738088_a_at) / RFU OLFML3 (11715873_a_at) / Fold change /veh OLFML3 (11715873_a_at) / RFU LOC100653217 /// NTM (11731650_a_at) / Fold change /veh LOC100653217 /// NTM (11731650_a_at) / RFU MAPK11 (11762145_a_at) / Fold change /veh MAPK11 (11762145_a_at) / RFU FIZ1 (11724087_x_at) / Fold change /veh FIZ1 (11724087_x_at) / RFU OASL (11726364_x_at) / Fold change /veh OASL (11726364_x_at) / RFU SOX15 (11748057_x_at) / Fold change /veh SOX15 (11748057_x_at) / RFU CD79A (11719716_a_at) / Fold change /veh CD79A (11719716_a_at) / RFU HIST1H1D (11736915_at) / Fold change /veh HIST1H1D (11736915_at) / RFU CASKIN2 (11723855_a_at) / Fold change /veh CASKIN2 (11723855_a_at) / RFU LOC730098 (11760151_x_at) / Fold change /veh LOC730098 (11760151_x_at) / RFU OR4N2 (11742367_at) / Fold change /veh OR4N2 (11742367_at) / RFU PRRT2 (11749266_a_at) / Fold change /veh PRRT2 (11749266_a_at) / RFU SNX32 (11753110_a_at) / Fold change /veh SNX32 (11753110_a_at) / RFU CDHR5 (11726645_a_at) / Fold change /veh CDHR5 (11726645_a_at) / RFU RCAN1 (11760418_a_at) / Fold change /veh RCAN1 (11760418_a_at) / RFU FAM167A (11723789_a_at) / Fold change /veh FAM167A (11723789_a_at) / RFU FAM26E (11764081_at) / Fold change /veh FAM26E (11764081_at) / RFU ISYNA1 (11749810_s_at) / Fold change /veh ISYNA1 (11749810_s_at) / RFU ACY1 (11761880_at) / Fold change /veh ACY1 (11761880_at) / RFU 11764098_at / Fold change /veh 11764098_at / RFU SAMD14 (11745864_x_at) / Fold change /veh SAMD14 (11745864_x_at) / RFU NPB (11741838_a_at) / Fold change /veh NPB (11741838_a_at) / RFU TMPRSS6 (11731388_a_at) / Fold change /veh TMPRSS6 (11731388_a_at) / RFU KRTAP10-2 (11738614_at) / Fold change /veh KRTAP10-2 (11738614_at) / RFU ARHGAP8 /// PRR5-ARHGAP8 (11727945_x_at) / Fold change /veh ARHGAP8 /// PRR5-ARHGAP8 (11727945_x_at) / RFU KRTAP5-7 /// NADSYN1 (11734609_at) / Fold change /veh KRTAP5-7 /// NADSYN1 (11734609_at) / RFU RASL12 (11751679_a_at) / Fold change /veh RASL12 (11751679_a_at) / RFU CDKN2B (11736163_a_at) / Fold change /veh CDKN2B (11736163_a_at) / RFU PRF1 (11729649_at) / Fold change /veh PRF1 (11729649_at) / RFU, ZNF638 /// ZNF638-IT1 / Fold change vs veh, ZNF638 /// ZNF638-IT1 / RFU, PANK3 / Fold change vs veh, PANK3 / RFU, SH3YL1 / Fold change vs veh, SH3YL1 / RFU, ZEB2 / Fold change vs veh, ZEB2 / RFU, NRIP1 / Fold change vs veh, NRIP1 / RFU, PTTG1IP / Fold change vs veh, PTTG1IP / RFU, CAPN2 / Fold change vs veh, CAPN2 / RFU, MED14 / Fold change vs veh, MED14 / RFU, SNORA58 / Fold change vs veh, SNORA58 / RFU, C1orf63 / Fold change vs veh, C1orf63 / RFU, LRRFIP1 / Fold change vs veh, LRRFIP1 / RFU, NDUFAF7 / Fold change vs veh, NDUFAF7 / RFU, SLC12A2 / Fold change vs veh, SLC12A2 / RFU, IBTK / Fold change vs veh, IBTK / RFU, ESF1 / Fold change vs veh, ESF1 / Fold change vs veh, TMEM50B / RFU, TAOK1 / Fold change vs veh, TAOK1 / RFU, ACBD3 / Fold change vs veh, ACBD3 / RFU, TMA16 / Fold change vs veh, TMA16 / RFU, RWDD3 / Fold change vs veh, RWDD3 / RFU, BCAT1 / Fold change vs veh, BCAT1 / RFU, EDEM3 / Fold change vs veh, EDEM3 / RFU, TMEM33 / Fold change vs veh, TMEM33 / RFU, WDR75 / Fold change vs veh, WDR75 / RFU, AHCTF1 / Fold change vs veh, AHCTF1 / RFU, TFRC / Fold change vs veh, TFRC / RFU, ZDHHC17 / Fold change vs veh, ZDHHC17 / RFU, NOM1 / Fold change vs veh, NOM1 / RFU, ARL8B / Fold change vs veh, ARL8B / RFU, ZBTB11 / Fold change vs veh, ZBTB11 / RFU, TAMM41 / Fold change vs veh, TAMM41 / RFU, KIAA1704 /// LOC100996395 / Fold change vs veh, KIAA1704 /// LOC100996395 / RFU, ING1 / Fold change vs veh, ING1 / RFU, TRMT61B / Fold change vs veh, TRMT61B / RFU, FUBP3 / Fold change vs veh, FUBP3 / RFU, TP53 / Fold change vs veh, TP53 / RFU, TNKS2 / Fold change vs veh, TNKS2 / RFU, ZFP14 / Fold change vs veh, ZFP14 / RFU, ACTR2 / Fold change vs veh, ACTR2 / RFU, PPP3R1 / Fold change vs veh, PPP3R1 / RFU, PIK3R1 / Fold change vs veh, PIK3R1 / RFU, HNRNPA1 / Fold change vs veh, HNRNPA1 / RFU, RNF170 / Fold change vs veh, RNF170 / RFU, ZNF28 / Fold change vs veh, ZNF28 / RFU, RNGTT / Fold change vs veh, RNGTT / RFU, OGT / Fold change vs veh, OGT / RFU, BRD1 / Fold change vs veh, BRD1 / RFU, MARS / Fold change vs veh, MARS / RFU, ZNF655 / Fold change vs veh, ZNF655 / RFU, FAHD1 / Fold change vs veh, FAHD1 / RFU, BDP1 / Fold change vs veh, BDP1 / RFU, LRRCC1 / Fold change vs veh, LRRCC1 / RFU, ARID1A / Fold change vs veh, ARID1A / RFU, ZNF146 / Fold change vs veh, ZNF146 / RFU, ZNF330 / Fold change vs veh, ZNF330 / RFU, GPN3 / Fold change vs veh, GPN3 / RFU, C9orf123 / Fold change vs veh, C9orf123 / RFU, N4BP2L2 / Fold change vs veh, N4BP2L2 / RFU, ARFIP1 / Fold change vs veh, ARFIP1 / RFU, FAM179B / Fold change vs veh, FAM179B / RFU, BCL10 / Fold change vs veh, BCL10 / RFU, UHRF1BP1L / Fold change vs veh, UHRF1BP1L / RFU, BET1 / Fold change vs veh, BET1 / RFU, CNOT2 / Fold change vs veh, CNOT2 / RFU, ZNF268 / Fold change vs veh, ZNF268 / Fold change vs veh, ZNF507 / RFU, DGCR2 / Fold change vs veh, DGCR2 / RFU, WDSUB1 / Fold change vs veh, WDSUB1 / Fold change vs veh, HSP90B1 /// MIR3652 / RFU, ADSS / Fold change vs veh, ADSS / RFU, GK / Fold change vs veh, GK / RFU, ZNF148 / Fold change vs veh, ZNF148 / RFU, TAF9 / Fold change vs veh, TAF9 / RFU, SLC1A5 / Fold change vs veh, SLC1A5 / RFU, SLMO2 / Fold change vs veh, SLMO2 / RFU, ABCC4 / Fold change vs veh, ABCC4 / RFU, LOC101060439 /// RAP1B / Fold change vs veh, LOC101060439 /// RAP1B / RFU, RFX7 / Fold change vs veh, RFX7 / RFU, GTPBP10 / Fold change vs veh, GTPBP10 / RFU, CNEP1R1 / Fold change vs veh, CNEP1R1 / RFU, BIVM-ERCC5 /// ERCC5 / Fold change vs veh, BIVM-ERCC5 /// ERCC5 / RFU, ILF3 / Fold change vs veh, ILF3 / RFU 11762660_at / Fold change /veh 11762660_at / RFU VCAN (11757783_s_at) / Fold change /veh VCAN (11757783_s_at) / RFU DDX43 (11728927_at) / Fold change /veh DDX43 (11728927_at) / RFU KRT8 (11758188_x_at) / Fold change /veh KRT8 (11758188_x_at) / RFU NKD1 (11759106_at) / Fold change /veh NKD1 (11759106_at) / RFU SRD5A1 (11742802_a_at) / Fold change /veh SRD5A1 (11742802_a_at) / RFU TPSAB1 /// TPSB2 (11721975_s_at) / Fold change /veh TPSAB1 /// TPSB2 (11721975_s_at) / RFU GSTM3 (11746129_a_at) / Fold change /veh GSTM3 (11746129_a_at) / RFU IL23R (11737362_x_at) / Fold change /veh IL23R (11737362_x_at) / RFU TMEM51 (11727254_a_at) / Fold change /veh TMEM51 (11727254_a_at) / RFU PIWIL2 (11732686_x_at) / Fold change /veh PIWIL2 (11732686_x_at) / RFU ORM1 (11744905_x_at) / Fold change /veh ORM1 (11744905_x_at) / RFU CCDC152 (11743942_at) / Fold change /veh CCDC152 (11743942_at) / RFU ECM1 (11717891_a_at) / Fold change /veh ECM1 (11717891_a_at) / RFU IL23R (11748794_a_at) / Fold change /veh IL23R (11748794_a_at) / RFU TNFAIP8L3 (11732012_x_at) / Fold change /veh TNFAIP8L3 (11732012_x_at) / RFU MBOAT4 (11741988_at) / Fold change /veh MBOAT4 (11741988_at) / RFU 11764193_at / Fold change /veh 11764193_at / RFU TMEM53 (11763286_at) / Fold change /veh TMEM53 (11763286_at) / RFU MAGEB2 (11727129_at) / Fold change /veh MAGEB2 (11727129_at) / RFU TMEM200A (11744735_a_at) / Fold change /veh TMEM200A (11744735_a_at) / RFU CCDC152 (11751479_a_at) / Fold change /veh CCDC152 (11751479_a_at) / RFU FAM211A (11726209_a_at) / Fold change /veh FAM211A (11726209_a_at) / RFU RGS16 (11746705_a_at) / Fold change /veh RGS16 (11746705_a_at) / RFU VCAN (11755009_s_at) / Fold change /veh VCAN (11755009_s_at) / RFU RHOB (11743442_s_at) / Fold change /veh RHOB (11743442_s_at) / RFU RGS16 (11720943_a_at) / Fold change /veh RGS16 (11720943_a_at) / RFU RGS16 (11720944_at) / Fold change /veh RGS16 (11720944_at) / RFU, VPS4B / Fold change vs veh, VPS4B / RFU, CREB1 / Fold change vs veh, CREB1 / RFU, DNAJC13 / Fold change vs veh, DNAJC13 / RFU, GNAQ / Fold change vs veh, GNAQ / RFU, CDK5R1 / Fold change vs veh, CDK5R1 / RFU, ZRANB3 / Fold change vs veh, ZRANB3 / RFU, CUL4A / Fold change vs veh, CUL4A / RFU, CCNY / Fold change vs veh, CCNY / RFU, UFL1 / Fold change vs veh, UFL1 / RFU, COG3 / Fold change vs veh, COG3 / RFU, DIAPH2 / Fold change vs veh, DIAPH2 / RFU, SKA2 / Fold change vs veh, SKA2 / RFU, AFF3 / Fold change vs veh, AFF3 / RFU, LMF1 / Fold change vs veh, LMF1 / RFU, IPO11 / Fold change vs veh, IPO11 / RFU, DFFB / Fold change vs veh, DFFB / RFU, FOXP1 / Fold change vs veh, FOXP1 / RFU, CARD8 / Fold change vs veh, CARD8 / RFU, STRN3 / Fold change vs veh, STRN3 / RFU, ADK / Fold change vs veh, ADK / RFU, RASSF2 / Fold change vs veh, RASSF2 / RFU, WIPF1 / Fold change vs veh, WIPF1 / RFU, LARP1B / Fold change vs veh, LARP1B / RFU, RASA1 / Fold change vs veh, RASA1 / RFU, RB1 / Fold change vs veh, RB1 / RFU, PPFIA1 / Fold change vs veh, PPFIA1 / RFU, MAT2A / Fold change vs veh, MAT2A / RFU, CCT5 / Fold change vs veh, CCT5 / RFU, WDR92 / Fold change vs veh, WDR92 / RFU, CUX1 / Fold change vs veh, CUX1 / RFU, TTC7A / Fold change vs veh, TTC7A / RFU, TMEM135 / Fold change vs veh, TMEM135 / RFU, DEPTOR / Fold change vs veh, DEPTOR / RFU, CPM / Fold change vs veh, CPM / RFU, DNAJB6 / Fold change vs veh, DNAJB6 / RFU, CACNA2D3 / Fold change vs veh, CACNA2D3 / RFU, DTX4 / Fold change vs veh, DTX4 / RFU, TFCP2 / Fold change vs veh, TFCP2 / RFU, GMCL1 /// GMCL1P1 / Fold change vs veh, GMCL1 /// GMCL1P1 / RFU, AEBP2 / Fold change vs veh, AEBP2 / RFU, SNHG1 /// SNORD22 /// SNORD25 /// SNORD26 /// SNORD27 /// SNORD28 /// SNORD29 /// SNORD31 / Fold change vs veh, SNHG1 /// SNORD22 /// SNORD25 /// SNORD26 /// SNORD27 /// SNORD28 /// SNORD29 /// SNORD31 / Fold change (Aza/veh), C12orf56 (ProbeSet 11735607_a_at) / Fold change (ACY-1035/veh), C12orf56 (ProbeSet 11735607_a_at) / Fold change (Aza/veh), FGFR1OP (ProbeSet 11751329_s_at) / Fold change (ACY-1035/veh), FGFR1OP (ProbeSet 11751329_s_at) / Fold change (Aza/veh), VPS36 (ProbeSet 11739960_a_at) / Fold change (ACY-1035/veh), VPS36 (ProbeSet 11739960_a_at) / RFU SYPL1 (11715823_x_at) / Fold change /veh SYPL1 (11715823_x_at) / RFU IGFBP7 (11715501_s_at) / Fold change /veh IGFBP7 (11715501_s_at) / RFU REEP3 (11722064_at) / Fold change /veh REEP3 (11722064_at) / RFU IGLL1 (11728026_x_at) / Fold change /veh IGLL1 (11728026_x_at): dose or concentration left out as unconfirmed. The conditions noted are these: MV-4-11 cells, 48 hours.

`Nc1ncn([C@@H]2O[C@H](CO)[C@@H](O)[C@H]2O)c(=O)n1` [azacitidine]: the “Fold change /veh IL23R (11737362_x_at)” value was determined as 1.70.
